Laboratory results: US20210308207A1, “COMPOUNDS COMPRISING A LINKER FOR INCREASING TRANSCYCLOOCTENE STABILITY” (Tagworks Pharmaceuticals B.V., priority 2018, published 2021)
Where a SMILES comes first, the peptide text is derived from it. [ ]: non-standard residue; d: D form. The star is where a group is joined. Dolaproine = CO[C@@H]([C@@H]1CCCN1)[C@@H](C)C(=O)O; Dil = CC[C@H](C)[C@H](NC)[C@@H](CC(=O)O)OC; X1 = C[C@@H](N*)[C@@H](O)c1ccccc1; NMeV = CN[C@H](C(=O)O)C(C)C

tested on: LS174T cells; assay: Cell proliferation (MTT) assay, LS174T; format: cell-based, human; details: 72 h
Procedure: (§1) The human colon cancer LS174T cell line was cultured in RPMI-1640 medium supplemented with 2 mM glutamine and 10% heat inactivated fetal calf serum. The human ovary carcinoma NIH:OVCAR-3 cell line was cultured in RPMI-1640 medium supplemented with 1 mM sodium pyruvate, 10 mM HEPES, 2 mM glutamine, 10 pg/mL bovine insulin and 20% fetal calf serum. The LS174T and NIH:OVCAR-3 cells were plated in 96-well plates at a 5000 cells/well density 24 h prior to the experiment. […] After 72 h incubation at 37° C., cell proliferation was assessed by an MTT assay. The proliferation assay was performed in triplicate.

Structure (SMILES) | EC50
CC[C@H](C)[C@@H]([C@@H](CC(=O)N1CCC[C@H]1[C@H](OC)[C@@H](C)C(=O)N[C@H](C)[C@@H](O)c1ccccc1)OC)N(C)C(=O)[C@@H](NC(=O)[C@@H](NC)C(C)C)C(C)C [MMAE, Monomethyl auristatin E] (H-[NMeV]V[Dil][Dolaproine]-X1) | 0.277 nM

tested on: NIH:OVCAR-3 cells; assay: Cell proliferation (MTT) assay, NIH:OVCAR-3; format: cell-based, human; details: NIH:OVCAR-3, 72 h
Procedure: as §1

Structure (SMILES) | EC50
CC[C@H](C)[C@@H]([C@@H](CC(=O)N1CCC[C@H]1[C@H](OC)[C@@H](C)C(=O)N[C@H](C)[C@@H](O)c1ccccc1)OC)N(C)C(=O)[C@@H](NC(=O)[C@@H](NC)C(C)C)C(C)C [MMAE, Monomethyl auristatin E] (H-[NMeV]V[Dil][Dolaproine]-X1) | 0.039 nM

tested on: AVP0458-TCO-MMAE; assay: Tetrazine-induced MMAE release from diabody ADC (LC-SIM-MS, D8-MMAE standard); details: 37° C., 24 h, PBS/plasma (1/1), 10 equiv of tetrazine
Procedure: MMAE release from diabody ADC (AVP0458-TCO-MMAE) was determined by using a deuterated internal standard D8-MMAE. ADC (1.1×10^−10 moles bound MMAE) and D8-MMAE (1.1×10^−10 moles) and 10 equiv of tetrazine were incubated in 100 uL PBS/plasma (1/1) at 37° C. […] After vortexing, 10 min standing at −20° C. and centrifugation, the supernatants were separated from the protein pellets, diluted with five parts of PBS and the ratio MMAE/D8-MMAE was measured with LC-SIM-MS, affording the release yields (Table 3).

Structure (SMILES) | release (%), induced MMAE release from AVP0458-TCO-MMAE
Cc1nnc(-c2nccnc2C)nn1 [Compound 4.20] | 59 ± 0.3%
CN(CCc1nnc(-c2ncccn2)nn1)C(=O)CCCC(=O)NC(CO)(CO)CO [Compound 4.15] | 55 ± 0.4%
Cc1nnc(-c2ccncn2)nn1 [Compound 4.19] | 60 ± 0.1%
Cc1nnc(-c2nccc(CNC(=O)CN(CCN(CC(=O)O)CC(=O)O)CC(=O)O)n2)nn1 [Compound 4.26] | 59 ± 0.6%
Cc1nnc(C)nn1 [Compound 2.1, 3,6-dimethyl-1,2,4,5-tetrazine] | 95 ± 0.4%
Cc1nnc(-c2nccc(C(=O)O)n2)nn1 [Compound 4.23] | 69 ± 0.5%
Cc1nnc(-c2nccc(CNC(=O)CCCC(=O)O)n2)nn1 [Compound 4.27] | 66 ± 0.5%
Cc1nnc(-c2nccc(CNC(=O)OC(C)(C)C)n2)nn1 [Compound 4.17] | 70 ± 0.1%
Cc1nnc(-c2ncccn2)nn1 [Compound 4.1, 3-methyl-6-(pyrimidin-2-yl)-1,2,4,5-tetrazine] | 69 ± 0.0%
Cc1nnc(-c2cnccn2)nn1 [Compound 4.18] | 55 ± 0.8%
Cc1nnc(-c2ccc(NC(=O)CCCC(=O)NCCOCCOCCOCCOCCOCCOCCOCCOCCOCCOCCOCCNC(=O)CN3CCN(CC(=O)O)CCN(CC(=O)O)CCN(CC(=O)O)CC3)cn2)nn1 [Compound 3.4, 2,2′,2″-(10-(44-((6-(6-methyl-1,2,4,5-tetrazin-3-yl)pyridin-3-yl)amino)-2,40,44-trioxo-6,9,12,15,18,21,24,27,30,33,36-undecaoxa-3,39-diazatetratetracontyl)-1,4,7,10-tetraazacyclododecane-1,4,7-triyl)triacetic acid] | 47 ± 0.3%
